Assay results as given in PubChem BioAssay AID463199 (Broad Institute, 2010).
Calls of active or inactive are those of the source.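 How the source made its calls: active means AC50, the dose giving half-maximal effect, exceeds a fixed cutoff for a compound that rescues yeast growth under heat; inactive means the rest, inconclusive results apart.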

Each compound was assayed on S. cerevisiae Burl-1 ts mutant growth, BacTiter-Glo, 38.5C 24 h (assay: growth induction of Burl-1 ts yeast mutant, dose response, counter-screen for SUMOylation pathway inhibitor project, whole organism, S. cerevisiae, luminescence (AID 463199)).

Compound	AC50
CC(=O)Nc1ccc(S(=O)(=O)N(C)CC(=O)Nc2ccc(Br)cc2F)cc1	> 42 µM (inactive)
Cn1c(O)c(C(c2ccccn2)c2c(O)n(C)c(=S)n(C)c2=O)c(=O)n(C)c1=S	> 42 µM (inactive)
C/C(=N\NC(=O)c1ccc(Cl)cc1)c1cccnc1	> 42 µM (inactive)
CCn1c(SC(=O)NC2CCCCC2)nnc1-c1cccs1	> 42 µM (inactive)
O=C(CCC(=O)Nc1ccc(F)cc1)N/N=C/c1cccs1	> 42 µM (inactive)
CC(C)C[C@@H](CO)N1CCN(Cc2cccnc2)CCC1=O	> 42 µM (inactive)
NNC(=O)c1oc2nc(-c3ccccc3)cc(-c3ccccc3)c2c1N	> 42 µM (inactive)
O=c1cc(C(F)(F)F)c2sc(N3CCCCC3)nc2[nH]1	> 42 µM (inactive)
Cc1[nH]c2ccccc2c1/C=N/NC(=O)c1cccc(Br)c1	> 42 µM (inactive)
CCCNC(=O)c1cc2c(C(F)(F)F)nn(C)c2s1	> 42 µM (inactive)
COc1ccccc1NC(=O)CSc1nc(O)c(Cc2ccccc2)c(=O)[nH]1	> 42 µM (inactive)
CCOP(=O)(OCC)C(NC(=O)c1cccc([N+](=O)[O-])c1)C(Cl)(Cl)Cl (centres undefined)	> 42 µM (inactive)
CCn1nccc1C(=O)Nc1nccs1	> 42 µM (inactive)
O=C(NCC(=O)N(c1ccccc1)C(C(=O)NCC1CCCO1)c1ccccc1)c1cccs1 (centres undefined)	> 42 µM (inactive)
Cc1c(Cl)c([N+](=O)[O-])nn1CC(=O)NC12CC3CC(CC(C3)C1)C2	> 42 µM (inactive)
CNS(=O)(=O)c1cccc(C(=O)NCC2(N3CCCCC3)CCCCC2)c1	> 42 µM (inactive)
COc1ccc(C)cc1S(=O)(=O)N1CCC(C(=O)NCCc2ccccc2)CC1	> 42 µM (inactive)
O=C(O)c1ccc(S(=O)(=O)N2CCN(c3ccccn3)CC2)cc1	> 42 µM (inactive)
COc1cc(CN2CCC(Oc3cc(C(=O)NC4CC4)ccc3OC)CC2)cc(OC)c1	16.9 µM
C=C(Cl)COC(=O)C1C2C=CC(C2)C1C(=O)O (centres undefined)	> 42 µM (inactive)
CC1(C)C(C=C(Cl)Cl)C1C(=O)OCc1cccc(Oc2ccccc2)c1 (centres undefined)	> 42 µM (inactive)
CCCCN(C(=O)C1=COCCO1)c1c(N)n(Cc2ccccc2)c(=O)[nH]c1=O	> 42 µM (inactive)
CCc1nnc2n1N=C(c1ccc(Cl)cc1)CS2	> 42 µM (inactive)
CCCc1cc(=O)oc2c3c(c4c(c12)OC(C)(C)C=C4)OC(C)C(C)C3O (centres undefined)	> 42 µM (inactive)
Cc1ccc2nc(NC(=O)CNS(=O)(=O)c3ccc(Br)s3)sc2c1	> 42 µM (inactive)

Compound	AC50
CCOC(=O)C1ON2CCCCC2C1(O)C(F)(F)F (centres undefined)	> 42 µM (inactive)
CCOc1ccc(C(=O)Nc2ccc(CN3CCOCC3)cc2)cc1Br	41.9 µM
CC(C)N=C(NS(=O)(=O)NC(=O)c1ccccc1)c1ccccc1	> 42 µM (inactive)
CCN1C(=O)N(C)[C@@H](c2ccccc2)C(C(=O)OC)=C1C	> 42 µM (inactive)
O=C1NC(c2ccccc2)C(C(=O)c2cccs2)C(O)(C(F)(F)F)N1 (centres undefined)	> 42 µM (inactive)
O=C(O)/C=C/c1cccnc1	> 42 µM (inactive)
CC(C)CCOCc1nc2sc3c(c2c(=O)[nH]1)CCC(C)C3 (centres undefined)	> 42 µM (inactive)
Cc1ccccc1-n1c(-c2cccnc2)n[nH]c1=S	> 42 µM (inactive)
COc1ccc2c(c1)[C@H]1[C@H](CO2)[C@H](c2ccccc2)[C@]2(C)C(=O)Nc3cc(C)ccc3C(=O)N12	> 42 µM (inactive)
Cc1nc(-c2cccc(S(=O)(=O)N3CCOCC3)c2)cs1	> 42 µM (inactive)
CCOC(=O)c1cnc2ccc(Cl)cc2c1N1CCN(C)CC1	> 42 µM (inactive)
C/C(=N\N1CCN(Cc2ccccc2Cl)CC1)c1ccc([N+](=O)[O-])cc1	> 42 µM (inactive)
COc1ccc(NC(=O)c2ccccc2NC(=O)NC2CCCCC2)cc1	> 42 µM (inactive)
O=C(CSc1ncnc2nc[nH]c12)Nc1ccccc1C(F)(F)F	> 42 µM (inactive)
COc1ccc(Cc2nnc(NCCO)[nH]c2=O)cc1	> 42 µM (inactive)
Cc1ccc(F)cc1NS(=O)(=O)c1ccc(Cl)s1	> 42 µM (inactive)
CCOc1ccc(Cn2c(SCCCCC#N)nc3c2c(=O)n(C)c(=O)n3C)cc1OCC	> 42 µM (inactive)
Oc1ccc(C2=CSC3=NCCN23)cc1O	> 42 µM (inactive)
CC(=O)N1CCC2(CC1)CC(=O)c1cc(OCC(=O)N3CCCC3)ccc1O2	> 42 µM (inactive)
COc1ccc([N+](=O)[O-])cc1NC(=O)C1CCCN1S(=O)(=O)c1cccs1 (centres undefined)	> 42 µM (inactive)
COc1cc(C(C2=C(O)CC(C)(C)CC2=O)C2C(=O)CC(C)(C)CC2=O)cc(OC)c1OC (centres undefined)	> 42 µM (inactive)
Cc1ccc(CNC(=O)c2ccc(N3CCC4(CC3)CC(c3ccccc3)=NO4)c(NC(=O)c3cccc(C)c3)c2)cc1	> 42 µM (inactive)
O=C(/C=C/c1ccc(Cl)cc1Cl)Nc1cccc(S(=O)(=O)NC2=NCCCCC2)c1	> 42 µM (inactive)
COc1cccc(/C=C2/C(=O)NN(c3ccc(Br)cc3)C2=O)c1O	> 42 µM (inactive)
